# Source: paper PMC12406255, “Engineering Peptide Modulators for T‑Cell Migration by Structural Scaffold Matching” (Journal of Medicinal Chemistry, 2025)
# Like-named read-outs stand apart in the source and are kept apart here. Positions of bridges follow the written chain, without caps; N, C: chain ends. Non-standard residues stand in square brackets, D forms with d. Residues, ends and D or L forms follow the SMILES beside them. Nle = CCCC[C@H](N)C(=O)O
# Columns and labels:
# [1] = test system: memory CD4+ cells (CD3+, CD4+, CD45RO+); assay type: cell-based, human; settings: for % Inhibition of cell migration compared to control, Memory CD4+: normalized to untreated control, mean ± SEM of 4-6 experiments
# [2] = test system: CD4+ lymphocytes (CD3+, CD4+); assay type: cell-based, human; settings: for % Inhibition of cell migration compared to control, CD4+: normalized to untreated control, mean ± SEM of 4-6 experiments
smiles,measurement,setting,value
"CCCC[C@@H]1NC(=O)[C@H](C(C)C)NC(=O)[C@H](CCCCN)NC(=O)[C@@H](NC(=O)[C@H](CCC(N)=O)NC(=O)[C@H](CCC(=O)O)NC(C)=O)CSSC[C@@H](C(=O)N[C@@H](CCC(=O)O)C(=O)N[C@@H](CCCCN)C(N)=O)NC(=O)[C@H](CC(N)=O)NC(=O)[C@H](CC(=O)O)NC(=O)[C@H](CC(C)C)NC(=O)[C@@H]2CSSC[C@H](NC1=O)C(=O)N[C@@H](Cc1ccc(O)cc1)C(=O)N[C@@H](C)C(=O)N[C@@H](CCC(N)=O)C(=O)NCC(=O)N[C@@H](C)C(=O)N[C@@H](CCC(=O)O)C(=O)N[C@@H](CC(C)C)C(=O)N1CCC[C@H]1C(=O)N[C@@H](CCC(=O)O)C(=O)N[C@@H](CC(C)C)C(=O)N[C@@H](CC(C)C)C(=O)N[C@@H](CCCNC(=N)N)C(=O)N[C@@H](CCCNC(=N)N)C(=O)N2 [VhTI-pep 2] (Ac-EQCKV[Nle]CYAQGAELPELLRRCLDNCEK-NH2; disulfide 3-25, 7-21)","% Inhibition of cell migration compared to control, Memory CD4+",[1]; 0.1 μM,34.4 ± 16.7%
same,"% Inhibition of cell migration compared to control, Memory CD4+",[1]; 1 μM,31.5 ± 10.4%
same,EC50,"[1]; EC monolayer pretreated with peptide, healthy-donor PBMC, 4 h, mean ± SD, 4 independent measurements, read-out: EC50, inhibition of memory CD4+ cell migration",9.8 ± 16.5 nM
same,"% Inhibition of cell migration compared to control, CD4+",[2]; 0.1 μM,34.3 ± 8.0%
same,"% Inhibition of cell migration compared to control, CD4+",[2]; 1 μM,33.2 ± 6.1%
same,EC50,"[2]; EC monolayer pretreated with peptide, healthy-donor PBMC, 4 h, mean ± SD, 4 independent measurements, read-out: EC50, inhibition of CD4+ cell migration",10.5 ± 15.9 nM
same,"maximal effect of inhibition of cell migration, CD4+ lymphocytes",[2]; from the concentration-response experiment,39.9 ± 12.5%
